Assay: mn = molality of the nth substance listed, in mol/kg
Conditions: 100 kPa, Liquid; for viscosity: Capillary tube (Ostwald / Ubbelohde) method; for speed of sound: Frequency=3 MHz, Single path-length method; for mass density: Vibrating tube method

C[C@H](CCC(=O)[O-])[C@H]1CC[C@H]2[C@@H]3CC[C@@H]4C[C@H](O)CC[C@]4(C)[C@H]3C[C@H](O)[C@]12C.[Na+] [sodium deoxycholate] + O
Conditions	mass density [kg/m3]	speed of sound [m/s]	viscosity [mPa·s]
293.15 K, m1 = 0.001	998.38	1483.7	1.003
293.15 K, m1 = 0.002	998.49	1484.1	1.004
293.15 K, m1 = 0.003	998.58	1484.5	1.006
293.15 K, m1 = 0.004	998.67	1484.7	1.009
293.15 K, m1 = 0.005	998.75	1484.9	1.014
293.15 K, m1 = 0.006	998.83	1485.2	1.027
293.15 K, m1 = 0.007	998.92	1485.4	1.036
293.15 K, m1 = 0.008	999.01	1485.6	1.04
293.15 K, m1 = 0.009	999.11	1485.8	1.045
293.15 K, m1 = 0.01	999.21	1486	1.047
293.15 K, m1 = 0.011	999.32	1486.2	1.05
293.15 K, m1 = 0.012	999.4	1486.4	1.051
298.15 K, m1 = 0.001	997.22	1497.4	0.892
298.15 K, m1 = 0.002	997.31	1497.6	0.893
298.15 K, m1 = 0.003	997.39	1497.9	0.894
298.15 K, m1 = 0.004	997.48	1498.1	0.897
298.15 K, m1 = 0.005	997.56	1498.3	0.902
298.15 K, m1 = 0.006	997.65	1498.6	0.915
298.15 K, m1 = 0.007	997.73	1498.8	0.924
298.15 K, m1 = 0.008	997.83	1499	0.928
298.15 K, m1 = 0.009	998.01	1499.3	0.932
298.15 K, m1 = 0.01	998.11	1499.5	0.934
298.15 K, m1 = 0.011	998.2	1499.7	0.937
298.15 K, m1 = 0.012	998.2	1499.9	0.938
303.15 K, m1 = 0.001	995.81	1509.6	0.799
303.15 K, m1 = 0.002	995.91	1509.8	0.8
303.15 K, m1 = 0.003	995.98	1510	0.801
303.15 K, m1 = 0.004	996.07	1510.2	0.804
303.15 K, m1 = 0.005	996.14	1510.4	0.809
303.15 K, m1 = 0.006	996.22	1510.7	0.822
303.15 K, m1 = 0.007	996.3	1510.9	0.83
303.15 K, m1 = 0.008	996.39	1511.2	0.834
303.15 K, m1 = 0.009	996.48	1511.4	0.839
303.15 K, m1 = 0.01	996.58	1511.6	0.841
303.15 K, m1 = 0.011	996.66	1511.9	0.843
303.15 K, m1 = 0.012	996.75	1512	0.846
308.15 K, m1 = 0.001	994.18	1520.1	0.72
308.15 K, m1 = 0.002	994.27	1520.4	0.721
308.15 K, m1 = 0.003	994.35	1520.6	0.722
308.15 K, m1 = 0.004	994.44	1520.8	0.726
308.15 K, m1 = 0.005	994.52	1521.2	0.73
308.15 K, m1 = 0.006	994.59	1521.5	0.743
308.15 K, m1 = 0.007	994.68	1521.7	0.752
308.15 K, m1 = 0.008	994.77	1522	0.756
308.15 K, m1 = 0.009	994.84	1522.2	0.76
308.15 K, m1 = 0.01	994.93	1522.4	0.763
308.15 K, m1 = 0.011	995.02	1522.2	0.764
308.15 K, m1 = 0.012	995.1	1522.4	0.766
313.15 K, m1 = 0.001	992.3	1529.2	0.654
313.15 K, m1 = 0.002	992.45	1529.4	0.655
313.15 K, m1 = 0.003	992.53	1529.6	0.657
313.15 K, m1 = 0.004	992.61	1529.8	0.659
313.15 K, m1 = 0.005	992.69	1529.9	0.664
313.15 K, m1 = 0.006	992.76	1530.1	0.678
313.15 K, m1 = 0.007	992.84	1530.3	0.686
313.15 K, m1 = 0.008	992.93	1530.5	0.69
313.15 K, m1 = 0.009	993.01	1530.7	0.694
313.15 K, m1 = 0.01	993.1	1530.9	0.695
313.15 K, m1 = 0.011	993.2	1531	0.699
313.15 K, m1 = 0.012	993.28	1531.2	0.699

Reference: the NIST ThermoML archive (doi:10.1021/acs.jced.8b00509)
